{"source": "patent US20070264702A1", "about": "(priority 2003, published 2007)", "key": {"[1]": {"test_system": "SL7207 4S2 pWSK-/pCAS-trp′::′lacZ infecting HeLa cells", "assay_type": "cell-based"}, "[2]": {"test_system": "nahR/Psal::xylS2 cascade circuit with Pm::trp′::′lacZ in SL7207 4S2", "assay_type": "cell-based, Salmonella typhimurium"}, "[3]": {"test_system": "nahR/Psal with xylS2/Pm downstream", "settings": "cited from earlier work"}, "SL7207 4S2": {"test_system": "SL7207 4S2", "assay": "growth inhibition of the bacterial cultures at high inducer concentration", "settings": "high concentrations (5 mM)"}, "XylS2": {"test_system": "XylS2", "settings": "XylS2 mutant regulator; cited from earlier work"}, "[4]": {"settings": "in vivo; cited from earlier work"}, "MarR": {"target": "MarR (Escherichia coli, UniProt P27245)", "sequence (P27245 whole entry)": "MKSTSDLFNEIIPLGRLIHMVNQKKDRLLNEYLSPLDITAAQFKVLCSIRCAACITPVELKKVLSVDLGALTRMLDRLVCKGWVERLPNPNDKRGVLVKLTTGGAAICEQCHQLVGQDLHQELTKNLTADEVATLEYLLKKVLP", "settings": "cited from earlier work"}}, "note": "“Also recorded” adds a separate entry of the source.", "data": [{"smiles": "CC(=O)Oc1ccccc1C(=O)O", "note": "[acetylsalicylic acid]", "values": [{"measurement": "β-galactosidase expression in bacteria infecting HeLa cells", "setting": "[1]", "value": "induce similar levels of β-galactosidase; also recorded: activate the signal cascade to similar levels"}, {"measurement": "induction of the system, salicylate compared with acetylsalicylic acid", "setting": "[2]", "value": "induced the system similarly"}, {"measurement": "induction reached with regulation cascade system", "setting": "[3]", "value": "1,000 fold"}, {"measurement": "growth inhibition", "setting": "SL7207 4S2", "value": "growth inhibition was evident"}, {"measurement": "induction of expression", "setting": "XylS2", "value": 10, "unit": "fold"}]}, {"smiles": "O=C(O)c1ccccc1O", "note": "[salicylate]", "values": [{"measurement": "half-life", "setting": "[4]", "value": "2 to 4", "unit": "h"}, {"measurement": "Kd", "setting": "MarR", "value": 500, "unit": "µM"}]}]}
